Reference: paper PMC8962522, “Direct interaction of TrkA/CD44v3 is essential for NGF-promoted aggressiveness of breast cancer cells” (Journal of Experimental & Clinical Cancer Research : CR, 2022)

Key:
[1] = test system: MDA-MB-231 cell metastasis; experiment: Metastasis of MDA-MB-231 xenografts (PCR of human microglobulin); assay type: in vivo, SCID mice; settings: lung, brain and liver; mice sacrificed when primary tumors reached the same size
Experimental: MDA-MB-231 cells (2 × 10^6) were subcutaneously injected into the flanks of six-week-old female SCID mice. One month after injection, the mice were randomized into 2 groups and injected near the tumor with CD44v3 mimetic peptide 4 (P4) or not (control) five times in a 3-day interval. Tumor volume was determined throughout the experiment by measuring the length (l) and width (w) and was calculated as π/6 × l × w × […]. Animals were sacrificed using isoflurane anesthesia when the tumors reached a similar size, and the organs were immediately removed and stored in liquid nitrogen.
Each organ was placed in a Precellys tube with QIAzol (1 mL) for lysis using a Precellys machine (3×). […]
To assess the role of TrkA/CD44v3 in vivo, SCID mice were injected with MDA-MB-231 cells to generate xenografts. Primary tumor development and metastasis (to the lung, brain and liver) were analyzed (Fig. 6). […] The development of primary tumors was measured throughout the experiments. […] We also assessed the metastatic burden. […] Micrometastases were detected at the end of the experiment by PCR of human microglobulin in xenograft mice treated with or without the CD44v3 mimetic peptide (Fig. 6E). […]
Fig. 6 CD44v3 mimetic peptide 4 blocks MDA-MB-231 tumor growth and metastasis. […] Body weight (B) and tumor volume (C) were measured following CD44v3 mimetic peptide administration (10 mice per group). […]

[2] = test system: TrkA/CD44v3 complex in BT-474 cells; experiment: PLA TrkA/CD44v3 complex formation in BT-474 cells; assay type: cell-based; settings: luminal B; NGF 100 ng/ml
Experimental: Cells (10,000 cells per well) were grown on acid-washed eight-well glass slides (Thermo Scientific) in the appropriate medium supplemented with 10% FBS for 24 h. After NGF treatment, paraformaldehyde (PAF)-fixed cells were incubated with 4% bovine serum albumin (BSA) or 5% FBS (for 1 h at 20 °C), followed by overnight incubation with primary antibodies (rabbit anti-TrkA or rabbit anti-IgG + mouse anti-pan-CD44; mouse anti-CD44v3; mouse anti-CD44v6; mouse anti-IgG2a; mouse anti-IgG2b; or mouse anti-IgG1). PLA was performed following the manufacturer’s instructions in the assay kit (Duolink PLA; Sigma–Aldrich). To obtain the correct representation of the PLA signal for each condition, 30 fields per condition were observed using a fluorescence microscope (Eclipse TiU; Nikon, Japan). The PLA signals (red dots) were automatically quantified using ImageJ software (with an in-house-developed plug-in). […]
Fig. 7 The TrkA/CD44v3 complex is formed in PR-negative breast cancer cells and tumors. TrkA/CD44v3 complex formation was measured in SUM159-PT (triple negative—i.e., ERα-, PR-, and Her2-) cells (A), T47-D (luminal A—i.e., ERα+, PR+, and Her2-) cells (B), BT-474 (luminal B—ERα+, PR+, and Her2+) cells (C), HCC-1954 (Her2-like—ERα-, PR-, and Her2+) cells (D), and 150 tumor patient samples obtained from US BioMax (HBre-Duc150Sur01) (E, F) using the proximity ligation assay (PLA). […]

[3] = cited from earlier work
Excerpt: With more functions than those of a membrane receptor, CD44 is a multifunctional platform implicated in numerous physiological and disease mechanisms. In cancer, it has many functions (e.g., adhesion, migration/invasion, growth, differentiation, and resistance to therapies) depending on the splice variant expressed, corresponding ligands, posttranscriptional modifications, and association with growth factors and different membrane proteins.

Substance | metastatic burden (in words) [1] | effect on TrkA/CD44v3 complex formation (PLA) in BT-474 cells [2] | binding to heparin (in words) [3]
IDDDEDFISST [Peptide 4, mimetic peptide 4 (…) corresponding to the C-terminal region of CD44v3] | decreased the metastatic burden at each analyzed location |  | 
NGF: recombinant human β-NGF (Alomone Labs, Israel) |  | NGF induction was insufficient to modulate TrkA/CD44v3 complex formation in BT-474 (luminal B) cells | does not bind heparin
